Activity calls are given as the source filed them. The calls are words filed in the database; no cut-off is given here. Some results are limits rather than exact numbers.

The first data set relates to NCI-H460. Briefly: Cell cycle arrest in human NCI-H460 cells assessed as accumulation at S phase at IC50 by propidium iodide staining-based FACS flow cytometric analysis relative to control.
Settings: not given
The data set is classed as functional. For orientation: In flow cytometry, cells or beads pass a laser one at a time.
With `CCOP(=O)(OCC)C(NC(=S)NC(=O)[C@]1(C)CCC[C@]2(C)c3ccc(C(C)C)cc3CC[C@@H]12)c1ccccc1OC` (stereo not given in full), the Activity came to 23.49%.

As for `O=c1[nH]cc(F)c(=O)[nH]1` [FLUOROURACIL], the Activity is reported as 28.07%.

In another data set the test system is NCI-H460. Nature of the data set: Cell cycle arrest in human NCI-H460 cells assessed as accumulation at G2 phase at IC50 by propidium iodide staining-based FACS flow cytometric analysis relative to control. The class given is functional.
Settings: not given
For `CCOP(=O)(OCC)C(NC(=S)NC(=O)[C@]1(C)CCC[C@]2(C)c3ccc(C(C)C)cc3CC[C@@H]12)c1ccccc1OC` (stereo not given in full), the Activity is listed as 13.7%.

In the case of `O=c1[nH]cc(F)c(=O)[nH]1` [FLUOROURACIL], the Activity is 0%.

The test system of a further data set is NCI-H460. Briefly: Cell cycle arrest in human NCI-H460 cells assessed as accumulation at G1 phase at IC50 by propidium iodide staining-based FACS flow cytometric analysis relative to control.
Settings: not given
The class given is functional.
Turning to `CCOP(=O)(OCC)C(NC(=S)NC(=O)[C@]1(C)CCC[C@]2(C)c3ccc(C(C)C)cc3CC[C@@H]12)c1ccccc1OC` (stereo not given in full), the Activity was found to be 62.8%.

Consider `O=c1[nH]cc(F)c(=O)[nH]1` [FLUOROURACIL], for which the Activity is on record as 71.93%.

The test system of another data set is NCI-H460. Briefly: Induction of apoptosis in human NCI-H460 cells assessed as apoptotic ratio at 5 uM after 12 hrs by Annexin V-FITC and propidium iodide staining-based FACS flow cytometric analysis relative to control.
Settings: not given
The class given is functional.
For `CCOP(=O)(OCC)C(NC(=S)NC(=O)[C@]1(C)CCC[C@]2(C)c3ccc(C(C)C)cc3CC[C@@H]12)c1ccccc1OC` (stereo not given in full), the Activity stood at 51.5%.

A further data set relates to NCI-H460. Briefly: Induction of apoptosis in human NCI-H460 cells assessed as apoptotic ratio at 3 uM after 12 hrs by Annexin V-FITC and propidium iodide staining-based FACS flow cytometric analysis relative to control.
Settings: not given
The class given is functional.
Regarding `CCOP(=O)(OCC)C(NC(=S)NC(=O)[C@]1(C)CCC[C@]2(C)c3ccc(C(C)C)cc3CC[C@@H]12)c1ccccc1OC` (stereo not given in full), the Activity was determined as 19.5%.

The subject of a further data set is NCI-H460. Nature of the data set: Induction of apoptosis in human NCI-H460 cells after 12 hrs by Annexin V-FITC and propidium iodide staining-based FACS flow cytometric analysis. The data set is classed as functional, cell-based.
Settings: not given
Take `CCOP(=O)(OCC)C(NC(=S)NC(=O)[C@]1(C)CCC[C@]2(C)c3ccc(C(C)C)cc3CC[C@@H]12)c1ccccc1OC` (stereo not given in full): the Activity entry is “Dose-dependent effect”.

In a further data set the test system is NCI-H460. Nature of the data set: Induction of apoptosis in human NCI-H460 cells assessed as early apoptotic cells at 45 uM after 24 hrs by Annexin V-FITC and propidium iodide staining-based FACS flow cytometric analysis (reference value: 1.5%). The class given is functional.
Settings: not given
For `O=c1[nH]cc(F)c(=O)[nH]1` [FLUOROURACIL], the Activity came out at 16.8%.

Another data set concerns NCI-H460. Briefly: Induction of apoptosis in human NCI-H460 cells assessed as necrotic/late apoptotic cells at 45 uM after 24 hrs by Annexin V-FITC and propidium iodide staining-based FACS flow cytometric analysis (reference value: 0.8%).
Settings: not given
The data set is classed as functional.
Turning to `O=c1[nH]cc(F)c(=O)[nH]1` [FLUOROURACIL], the Activity came out at 6.5%.

A further data set deals with NCI-H460. Nature of the data set: Induction of apoptosis in human NCI-H460 cells assessed as early apoptotic cells at 5 uM after 24 hrs by Annexin V-FITC and propidium iodide staining-based FACS flow cytometric analysis (reference value: 3.8%). The data set is classed as functional.
Settings: not given
`CCOP(=O)(OCC)C(NC(=S)NC(=O)[C@]1(C)CCC[C@]2(C)c3ccc(C(C)C)cc3CC[C@@H]12)c1ccccc1OC` (stereo not given in full): the Activity turned out to be 35.3%.

Another data set concerns NCI-H460. Briefly: Induction of apoptosis in human NCI-H460 cells assessed as necrotic/late apoptotic cells at 5 uM after 24 hrs by Annexin V-FITC and propidium iodide staining-based FACS flow cytometric analysis (reference value: 1.9%). The data set is classed as functional.
Settings: not given
With `CCOP(=O)(OCC)C(NC(=S)NC(=O)[C@]1(C)CCC[C@]2(C)c3ccc(C(C)C)cc3CC[C@@H]12)c1ccccc1OC` (stereo not given in full), the Activity is 16.2%.

The subject of the next data set is NCI-H460. Nature of the data set: Induction of apoptosis in human NCI-H460 cells assessed as early apoptotic cells at 5 uM after 12 hrs by Annexin V-FITC and propidium iodide staining-based FACS flow cytometric analysis (reference value: 3.8%). The data set is classed as functional.
Settings: not given
For `CCOP(=O)(OCC)C(NC(=S)NC(=O)[C@]1(C)CCC[C@]2(C)c3ccc(C(C)C)cc3CC[C@@H]12)c1ccccc1OC` (stereo not given in full), the Activity worked out at 14.3%.

For another data set, the system named is NCI-H460. Briefly: Induction of apoptosis in human NCI-H460 cells assessed as necrotic/late apoptotic cells at 5 uM after 12 hrs by Annexin V-FITC and propidium iodide staining-based FACS flow cytometric analysis (reference value: 1.9%). The class given is functional.
Settings: not given
Take `CCOP(=O)(OCC)C(NC(=S)NC(=O)[C@]1(C)CCC[C@]2(C)c3ccc(C(C)C)cc3CC[C@@H]12)c1ccccc1OC` (stereo not given in full): the Activity worked out at 5.2%.

A further data set deals with NCI-H460. Nature of the data set: Induction of apoptosis in human NCI-H460 cells assessed as loss of mitochondria membrane potential at 45 uM after 24 hrs by JC-1 staining-based fluorescence microscopic analysis. The data set is classed as functional, cell-based.
Settings: not given
Regarding `O=c1[nH]cc(F)c(=O)[nH]1` [FLUOROURACIL], the outcome was Active.

A further data set has as its system NCI-H460. Briefly: Induction of apoptosis in human NCI-H460 cells assessed as loss of mitochondria membrane potential at 5 uM after 12 to 24 hrs by JC-1 staining-based fluorescence microscopic analysis. The class given is functional, cell-based.
Settings: not given
Regarding `CCOP(=O)(OCC)C(NC(=S)NC(=O)[C@]1(C)CCC[C@]2(C)c3ccc(C(C)C)cc3CC[C@@H]12)c1ccccc1OC` (stereo not given in full), the outcome was Active.

A further data set has as its system NCI-H460. Nature of the data set: Induction of apoptosis in human NCI-H460 cells at 5 uM after 12 to 24 hrs by Hoechst 33258 staining-based fluorescence microscopic analysis. The data set is classed as functional, cell-based.
Settings: not given
Take `CCOP(=O)(OCC)C(NC(=S)NC(=O)[C@]1(C)CCC[C@]2(C)c3ccc(C(C)C)cc3CC[C@@H]12)c1ccccc1OC` (stereo not given in full): the result was Active.

The test system of a further data set is NCI-H460. Nature of the data set: Cytotoxicity against human NCI-H460 cells at 5 uM after 12 to 24 hrs by AO/EB staining-based fluorescence microscopic analysis. The class given is cell-based. As to conditions: nci-h460, 5 µM.
As to `CCOP(=O)(OCC)C(NC(=S)NC(=O)[C@]1(C)CCC[C@]2(C)c3ccc(C(C)C)cc3CC[C@@H]12)c1ccccc1OC` (stereo not given in full), the Activity result was “Non-toxic”.

A further data set concerns NCI-H460. Nature of the data set: Induction of apoptosis in human NCI-H460 cells assessed as cell budding at 5 uM after 12 to 24 hrs by AO/EB staining-based fluorescence microscopic analysis. The class given is functional.
Settings: not given
Take `CCOP(=O)(OCC)C(NC(=S)NC(=O)[C@]1(C)CCC[C@]2(C)c3ccc(C(C)C)cc3CC[C@@H]12)c1ccccc1OC` (stereo not given in full): the result was Active.

The next data set concerns NCI-H460. Nature of the data set: Cytotoxicity against human NCI-H460 cells after 48 hrs by MTT assay. The class given is functional, cell-based. Particulars: NCI-H460, 48 h. For orientation: Formazan colour is commonly taken as a measure of viable cells.
For orientation: IC50 means the concentration needed to halve the response being measured. Turning to `CCOP(=O)(OCC)C(NC(=S)NC(=O)[C@]1(C)CCC[C@]2(C)c3ccc(C(C)C)cc3CC[C@@H]12)c1cccc2ccccc12` (stereo not given in full), it took 32.6 µM to reach half-maximal inhibition (IC50).

For the compound `CCOP(=O)(OCC)C(NC(=S)NC(=O)[C@]1(C)CCC[C@]2(C)c3ccc(C(C)C)cc3CC[C@@H]12)c1ccccc1OC` (stereo not given in full), the IC50 is 3.33 µM.

For `CCOP(=O)(OCC)C(NC(=S)NC(=O)[C@]1(C)CCC[C@]2(C)c3ccc(C(C)C)cc3CC[C@@H]12)c1ccccc1Br` (stereo not given in full), the concentration for half-maximal inhibition (IC50) amounted to 18.6 µM.

In the next data set the test system is A549. Nature of the data set: Cytotoxicity against human A549 cells after 48 hrs by MTT assay. The class given is functional, cell-based. As to conditions: A549, 48 h.
For `CCOP(=O)(OCC)C(NC(=S)NC(=O)[C@]1(C)CCC[C@]2(C)c3ccc(C(C)C)cc3CC[C@@H]12)c1cccc2ccccc12` (stereo not given in full), it took 28.3 µM to reach half-maximal inhibition (IC50).

Regarding `CCOP(=O)(OCC)C(NC(=S)NC(=O)[C@]1(C)CCC[C@]2(C)c3ccc(C(C)C)cc3CC[C@@H]12)c1ccccc1OC` (stereo not given in full), the midpoint of inhibition, the IC50, lay at 18.4 µM.

In the case of `CCOP(=O)(OCC)C(NC(=S)NC(=O)[C@]1(C)CCC[C@]2(C)c3ccc(C(C)C)cc3CC[C@@H]12)c1ccccc1Br` (stereo not given in full), 22.2 µM corresponded to half-maximal inhibition (IC50). The IC50 values of the last two compounds are within 1.5-fold of each other.

A further data set relates to HepG2. Nature of the data set: Cytotoxicity against human HepG2 cells after 48 hrs by MTT assay. Particulars: HepG2, 48 h. The data set is classed as functional, cell-based.
The compound `CCOP(=O)(OCC)C(NC(=S)NC(=O)[C@]1(C)CCC[C@]2(C)c3ccc(C(C)C)cc3CC[C@@H]12)c1cccc2ccccc12` (stereo not given in full) gave an IC50 of more than 50 µM.

With `CCOP(=O)(OCC)C(NC(=S)NC(=O)[C@]1(C)CCC[C@]2(C)c3ccc(C(C)C)cc3CC[C@@H]12)c1ccccc1OC` (stereo not given in full), 7.7 µM corresponded to half-maximal inhibition (IC50). This counts as single-digit micromolar.

In turn, `CCOP(=O)(OCC)C(NC(=S)NC(=O)[C@]1(C)CCC[C@]2(C)c3ccc(C(C)C)cc3CC[C@@H]12)c1ccccc1Br` (stereo not given in full) yielded an IC50 of 27.1 µM. Compared with the last compound, the IC50 is about 3.5-fold higher.

`O=c1[nH]cc(F)c(=O)[nH]1` [FLUOROURACIL] showed an IC50 of 30 µM.

Another data set concerns SK-OV-3. Nature of the data set: Cytotoxicity against human SKOV3 cells after 48 hrs by MTT assay. As to conditions: SK-OV-3, 48 h. The class given is functional, cell-based.
Turning to `CCOP(=O)(OCC)C(NC(=S)NC(=O)[C@]1(C)CCC[C@]2(C)c3ccc(C(C)C)cc3CC[C@@H]12)c1cccc2ccccc12` (stereo not given in full), the midpoint of inhibition, the IC50, lay at 19.1 µM.

The compound `CCOP(=O)(OCC)C(NC(=S)NC(=O)[C@]1(C)CCC[C@]2(C)c3ccc(C(C)C)cc3CC[C@@H]12)c1ccccc1OC` (stereo not given in full) came in with a half-maximal inhibitory concentration (IC50) of 18.9 µM.

`CCOP(=O)(OCC)C(NC(=S)NC(=O)[C@]1(C)CCC[C@]2(C)c3ccc(C(C)C)cc3CC[C@@H]12)c1ccccc1Br` (stereo not given in full) registered an IC50 of 17.4 µM.

In another data set the test system is NCI-H460. Briefly: Induction of apoptosis in human NCI-H460 cells assessed as pycnosis at 5 uM after 12 to 24 hrs by AO/EB staining-based fluorescence microscopic analysis. The data set is classed as functional, cell-based.
Settings: not given
Take `CCOP(=O)(OCC)C(NC(=S)NC(=O)[C@]1(C)CCC[C@]2(C)c3ccc(C(C)C)cc3CC[C@@H]12)c1ccccc1OC` (stereo not given in full): the outcome was Active.

The subject of a further data set is NCI-H460. Briefly: Induction of apoptosis in human NCI-H460 cells assessed as membrane blebbing at 5 uM after 12 to 24 hrs by AO/EB staining-based fluorescence microscopic analysis.
Settings: not given
The data set is classed as functional, cell-based.
In the case of `CCOP(=O)(OCC)C(NC(=S)NC(=O)[C@]1(C)CCC[C@]2(C)c3ccc(C(C)C)cc3CC[C@@H]12)c1ccccc1OC` (stereo not given in full), the result was Active.
